Source: patent US20220202739A1, “ENDOCANNABINOID MIMETIC AND ANTI-INFLAMMATORY COMPOUND CONTAINING COMPOSITIONS, METHODS OF PREPARATION AND USES THEREOF” (priority 2019, published 2022)
Where two headings read alike, the source gives them in different places.

How the values were obtained:
NFKB1 = experiment: Gene expression custom microarray, pooled keratinocyte line (Example 3): NFKB1; format: cell-based, human; settings: pooled keratinocytes, 20 ppm, 24 hr
Protocol: NOTE: Standard maximum levels of solvent are 0.1% for DMSO and 0.5% for ETOH.
The plates were returned to the incubator for 24 hrs.
At the end of the 24 hr time period, the plates were removed from the incubator, the test media aspirated, and the cells rinsed with PBS. […] Pipet multiple times to ensure thorough lysis. Add lysed cells to the collection tube. • Add 350 μl of 70% ETOH to the collection tube and mix thoroughly. • Pipet the generated lysate onto the spin column placed in a new 2 ml tube. Centrifuge for 30 sec between 8,000 and 10,000 g. • Place the spin column containing the now bound RNA, in a new 2 ml tube. Add 700 μl of low stringency wash solution to the spin column. Centrifuge for 30 sec between 8,000 and 10,000 g. Discard the flow through and replace spin column. • Add 80 μl of DNase I dilution to the spin column and incubate at room temperature for 15 minutes. • Add 700 μl of high stringency wash solution to the column and centrifuge for 30 sec between 8,000 and 10,000 g. Discard flow through. • Add 700 μl of low stringency wash solution to the column and centrifuge for 60 sec between 8,000 and 10,000 g. Discard flow through. • Centrifuge for 2 minutes to remove residual wash solution. • Transfer spin column to new 1.5 ml collection tube and add 80 μl of elution solution to the column. Allow 1 minute for saturation of the membrane and then centrifuge for 2 minutes to complete the RNA elution. • Quantify the quantity of RNA and store at −20 C° until use (no more than 1 month)

IL1A = experiment: Gene expression custom microarray, human skin fibroblasts (Example 1): IL1A; format: cell-based; settings: 24 hr; for fold induction at 10 µM: Skin fibroblast, read-out: IL1A↓ gene expression, fold increase or decrease vs untreated cells
Text: (§1) Cell cultures: A human skin fibroblast cell culture (or cultures) was obtained through the Coriell Cell Repository from the National Institute on Aging Cell Repository (Camden, N.J.), or Promocell GmbH (Heidelberg, Germany). The initial culture was selected from the following cell lines: AG13066, AG11557, AG11796 or GM03651E. The cell lines were derived from donors as follows:
(§2) Experimental phase: When the appropriate quantity of cells had been grown, they were detached as described above, but at the final step were seeded into each well of one or more 6 well dishes. Each well received 2 ml of the cell suspension so they were seeded equally. The dishes were returned to the incubator until 85-95% confluency was reached.
(§3) It is at this stage that all wells were rinsed in PBS after aspirating the growth media. The compound(s) to be tested were previously mixed into a suitable solvent (e.g., DMSO or ethanol) that can be diluted to the desired concentration of test compound (10 μl) in the culture wells without exceeding maximum solvent concentrations and adversely effecting cell viability, and mixed with basal media. NOTE: Standard maximum levels of solvent are 0.1% for DMSO and 0.5% for ETOH. The concentration of each test compound is found in Tables 1 & 2.
(§4) Every 2 wells on the 6 well plate served as a biological replicate for the purposes of RNA isolation and genetic expression evaluations making each 6 well dish an n=3 for the test compound(s) contained in the media. Negative control plates (no test compound(s) and only basal media) were also generated. The plates were returned to the incubator for 24 hrs.
(§5) At the end of the 24 hr time period, the plates were removed from the incubator, the test media aspirated, and the cells rinsed with PBS. RNA isolation is performed using the BioRad Aurum Total RNA Mini Kit (Hercules, Calif.) per manufacturer's protocol; which is described, in brief, below: • Add 350 μl of lysis buffer to each well. Pipet multiple times to ensure thorough lysis. Add lysed cells to the collection tube. • Add 350 μl of 70% ETOH to the collection tube and mix thoroughly. • Pipet the generated lysate onto the spin column placed in a new 2 ml tube. Centrifuge for 30 sec between 8,000 and 10,000 g. • Place the spin column containing the now bound RNA, in a new 2 ml tube. Add 700 μl of low stringency wash solution to the spin column. Centrifuge for 30 sec between 8,000 and 10,000 g. Discard the flow through and replace spin column. • Add 80 μl of DNase I dilution to the spin column and incubate at room temperature for 15 minutes. • Add 700 μl of high stringency wash solution to the column and centrifuge for 30 sec between 8,000 and 10,000 g. Discard flow through. • Add 700 μl of low stringency wash solution to the column and centrifuge for 60 sec between 8,000 and 10,000 g. Discard flow through. • Centrifuge for 2 minutes to remove residual wash solution. • Transfer spin column to new 1.5 ml collection tube and add 80 μl of elution solution to the column. Allow 1 minute for saturation of the membrane and then centrifuge for 2 minutes to complete the RNA elution. • Quantify the quantity of RNA and store at −20 C° until use (no more than 1 month)
The genes tested were: • Cannabinoid receptor 1 (CB1(CNR1)) • Cannabinoid receptor 2 (CB2 (CNR2)) • Fatty acid amide hydrolase (FAAH) • Monoacylglycerol lipase (MGLL, i.e., MAGL) • Peroxisome proliferator-activated receptor gamma (PPARG) • Nuclear factor kappa-light-chain-enhancer of activated B cells (NFκβ) • Interleukin 1 Alpha (IL1alpha) • Cyclooxygenase 1 (PTGS1, i.e., COX1) • Transient receptor potential cation channel subfamily A member 1 (TRPA1) • Transient receptor potential cation channel subfamily V member 1 (TRPV1) • Transient receptor potential cation channel subfamily M member 8 (TRPM8) • Hemoglobin Subunit Beta (HBB) REFERENCE GENE • Ribosomal Protein L13a (RPL13A) REFERENCE GENE […]

PPARG = experiment: Gene expression custom microarray, human skin fibroblasts (Example 1): PPARG; format: cell-based; settings: for fold induction at 10 µM: Skin fibroblast, read-out: PPARG↑ gene expression, fold increase or decrease vs untreated cells
Text: as §1, §2
as §3, with “ETOH.” for “ETOH. The concentration of each test compound is found in Tables 1 & 2.”
as §4, §5
The genes tested were: • Cannabinoid receptor 1 (CB1(CNR1)) • Cannabinoid receptor 2 (CB2 (CNR2)) • Fatty acid amide hydrolase (FAAH) • Monoacylglycerol lipase (MGLL, i.e., MAGL) • Peroxisome proliferator-activated receptor gamma (PPARG) • Nuclear factor kappa-light-chain-enhancer of activated B cells (NFκβ) • Interleukin 1 Alpha (IL1alpha) • Cyclooxygenase 1 (PTGS1, i.e., COX1) • Transient receptor potential cation channel subfamily A member 1 (TRPA1) • Transient receptor potential cation channel subfamily V member 1 (TRPV1) • Transient receptor potential cation channel subfamily M member 8 (TRPM8) • Hemoglobin Subunit Beta (HBB) REFERENCE GENE • Ribosomal Protein L13a (RPL13A) REFERENCE GENE

[1] = human skin fibroblasts, 10 uM, 24 hr

`C=C(C)[C@@H]1CCC(C)=C[C@H]1c1c(O)cc(CCCCC)cc1O` [CBD, cannabidiol, reference compound] was tested, and the “↓NFKB1 gene expression, fold increase or decrease vs untreated cells” value (NFKB1) was 2.5 fold, the fold induction at 10 µM (IL1A) was 20.5 and the fold induction at 10 µM (PPARG; Homo sapiens, 24 h) was 8.1.
In the case of `CCCCCCCCCCCCCCCC(=O)NCCO` [N-palmitoylethanolamide], the “↓NFKB1 gene expression, fold increase or decrease vs untreated cells” value (NFKB1) is reported as −2.2 fold, the “IL1A↓ gene expression, fold increase or decrease vs untreated cells” value (IL1A; 10 uM) is reported as −1.2 fold and the “PPARG↑ gene expression, fold increase or decrease vs untreated cells” value (PPARG; [1]) is reported as 2.6 fold.
For `CC(C)[C@]12O[C@H]1[C@@H]1O[C@]13[C@]1(O[C@H]1C[C@H]1C4=C(CC[C@@]13C)C(=O)OC4)[C@@H]2O` [Triptolide], the “↓NFKB1 gene expression, fold increase or decrease vs untreated cells” value (NFKB1) was −4.2 fold, the fold induction at 10 µM (IL1A) was 15.5 and the fold induction at 10 µM (PPARG; [1]) was 1.1.
